These are literature values, as cited in US20250073197A1, “THE ANTI-INFLAMMATORY ROLE OF CANNABIDIOL, RETINYL PALMITATE, BETA-CARYOPHYLLENE AND TRIBUTYRIN WHEN ADMINISTERED IN CONJUNCTION” (FLG Sciences, LLC, priority 2023, published 2025).

The conditions of data set [1]: use in the disease named in Table 1 (Diabetes or Dyslipidemia).

For the molecule cannabidiol [CBD], in the data set with 24,000 gene probes (Illumina gene array), the gene transcripts down-regulated was 524, the gene transcripts up-regulated is on record as 680, the “genes downregulated 2-fold or more” value was 38 and the “transcripts upregulated 2-fold or more” value is recorded as 123. The “gene transcripts significantly regulated” value with 24,000 gene probes (Illumina gene array, 24,000 gene probes) was 1204.
Regarding `Cn1c(COc2ccc(CC3SC(=O)NC3=O)cc2)nc2ccccc2c1=O` (stereo not shown) [Balaglitazone], in data set [1], the Side effect entry was “Edema”.
As for `CC(C)(Oc1ccc(CCNC(=O)c2ccc(Cl)cc2)cc1)C(=O)O` [Bezafibrate], the Side effect entry in data set [1] was “Hepatotoxicity”.
Turning to `CCc1ccc(CCOc2ccc(CC3SC(=O)NC3=O)cc2)nc1` (stereo not shown) [Pioglitazone], the Side effect entry in data set [1] was “Edema”.
Take `CN(CCOc1ccc(CC2SC(=O)NC2=O)cc1)c1ccccn1` (stereo not shown) [Rosiglitazone]: the Side effect entry in data set [1] is reported as “Edema”.
In the case of `CC(C)OC(=O)C(C)(C)Oc1ccc(C(=O)c2ccc(Cl)cc2)cc1` [Fenofibrates], the Side effect entry in data set [1] was “Pancreatitis”.
